The text below walks through data of patent publication US20210038587A1, “METHODS AND COMPOSITIONS FOR TREATING NON-ERK MAPK PATHWAY INHIBITOR-RESISTANT CANCERS” (BIOMED VALLEY DISCOVERIES, INC., priority 2013, published 2021).

In brackets after ≈: the same amount, converted by molar mass.

One assay has as its target CDK2/cyclinA (Homo sapiens, UniProt P24941). The experiment in a line: Kinase counter-screen, Ki. Type of assay: biochemical. On the technique in general: Counterscreens check selectivity or assay interference.
For assay [1], the system named is PMA-stimulated RSK1 phosphorylation. The experiment in a line: Ex vivo inhibition of PMA-stimulated RSK1 phosphorylation in human whole blood. In kind it is cell-based.
The next assay deals with upstaged A375 xenografts. The experiment in a line: Upstaged A375 xenograft model, BVD-523 in combination with dabrafenib. Type of assay: in vivo, mice. To be noted: 100 mg/kg BID. The method, then:
Combination dosing was stopped on Day 20 to monitor for tumor regrowth. Animals were monitored individually and euthanized when each tumor reached an endpoint volume of 2000 mm^3, or the final day (Day 45), whichever came first, and median time to endpoint (TTE) calculated. The combination was also evaluated in an upstaged A375 model where larger tumors in the range 228-1008 mm^3 were evaluated. Here, mice were randomized into 1 group (Group 1) of 14 and 4 groups (Groups 2-5) of 20. […] Tumors were measured twice weekly. Combination dosing was stopped on Day 42 to monitor for tumor regrowth through study end (Day 60). Treatment outcome was determined from % TGD, defined as the percent increase in median TTE for treated versus control mice, with differences between groups analyzed via log rank survival analysis. […] Mice were also monitored for CR and PR responses. Animals with a CR at the end of the study were additionally classified as TFS.

Excerpt for CDK2/cyclinA: The ATP concentrations were approximately equal to the Km in all assays.

What is called Ki is a measure of affinity in units of concentration, obtained from inhibition or displacement. High values mean lower affinity, low ones higher affinity. The EC50 is the concentration needed to bring the measured effect to its halfway point. In general, inhibition refers to the relative decrease from the control value, in per cent. Broadly, the IC50 is the concentration that inhibits the measured activity by half. Compound `CC(C)Nc1cc(-c2c[nH]c(C(=O)N[C@H](CO)c3cccc(Cl)c3)c2)c(Cl)cn1` [BVD-523] registered an inhibition constant Ki on CDK2/cyclinA of 360 nM. In addition, the EC50 in assay [1] (Homo sapiens, human whole blood (HWB), read-out: EC50 based on the ex vivo whole blood assay) is roughly 0.2 µg/mL (≈ 0.462 µM). Moreover, the inhibition at 10 µM in assay [1] (Homo sapiens, read-out: maximum inhibition of RSK phosphorylation) amounted to 75.8 ± 2.7%. Besides, in assay [1] (Homo sapiens, whole blood from healthy volunteers, read-out: mean IC50, PMA-stimulated RSK phosphorylation), the half-inhibitory concentration (IC50) worked out at 461 ± 20 nM. Besides, the “EC50 based on the ex vivo whole blood assay” value in assay [1] (human whole blood (HWB)) was found to be 0.2 µg/mL (≈ 0.462 µM). Moreover, the PRs in the assay on upstaged A375 xenografts worked out at 2.
